According to paper PMC6181319, “Thermodynamic and computational analyses reveal the functional roles of the galloyl group of tea catechins in molecular recognition” (PLoS ONE, 2018):
Where two headings read alike, the source gives them in different places. Marks after values point to notes of the source that are not given here.

What was measured:
[1] = biological target: T1, human serum albumin (HSA) (Homo sapiens, UniProt P02768); experiment: Isothermal titration calorimetry (ITC) of binding of catechins and analogs to HSA; design: purchased Sigma-Aldrich Japan (Tokyo, Japan); conditions: for change of binding affinity with addition of 0.2 M NaCl: 0.2 M NaCl versus no NaCl
T1 sequence (P02768 25-609): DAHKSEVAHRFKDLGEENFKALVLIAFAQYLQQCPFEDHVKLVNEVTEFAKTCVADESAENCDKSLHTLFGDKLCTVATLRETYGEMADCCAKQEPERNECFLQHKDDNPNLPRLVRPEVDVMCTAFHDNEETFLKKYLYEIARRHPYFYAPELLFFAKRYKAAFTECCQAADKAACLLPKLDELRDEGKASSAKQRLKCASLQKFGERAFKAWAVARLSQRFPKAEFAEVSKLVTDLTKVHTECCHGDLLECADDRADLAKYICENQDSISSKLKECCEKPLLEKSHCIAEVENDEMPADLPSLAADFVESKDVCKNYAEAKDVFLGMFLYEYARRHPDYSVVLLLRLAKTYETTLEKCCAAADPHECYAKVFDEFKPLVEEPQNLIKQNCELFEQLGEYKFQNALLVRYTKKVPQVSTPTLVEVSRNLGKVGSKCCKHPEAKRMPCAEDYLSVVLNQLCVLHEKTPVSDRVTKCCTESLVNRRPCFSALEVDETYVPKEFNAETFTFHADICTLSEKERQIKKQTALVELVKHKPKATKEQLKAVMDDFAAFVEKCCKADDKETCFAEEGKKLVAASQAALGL
Procedure: The binding of the catechins and its analogs to HSA was examined in a VP-ITC instrument (Microcal Northampton, MA). […] The data were analyzed with the Origin software (ver. 7) by means of a single-binding-site model. The thermodynamic parameters were obtained from three replicate titrations, where the dilution heats of the ligands were subtracted.

[2] = biological target: T1, human serum albumin (HSA); experiment: Differential scanning calorimetry (DSC), thermal stability of HSA–ligand complexes; conditions: for Tm: DSC, HSA 50 μM, ligand 500 μM, 50 mM sodium phosphate pH 6.8, HSA alone 68.6 ± 0.1; for ΔTm at 500 µM: human, pH 6.8
Procedure: The thermal stabilities of HSA and the HSA–ligand complexes were determined by differential scanning calorimetry in a VP-DSC autosampler instrument (GE Healthcare). The cell was heated from 303 to 363 K at a rate of 1 K min^−1. The concentrations of HSA and the ligands were 50 and 500 μM, respectively, in a buffer composed of 50 mM sodium phosphate (pH 6.8). The data analysis was carried out with the Origin software (ver. 7) using a two-state model.

[3] = Table 2, methylated catechin derivatives, ITC, 298 K
[4] = Table 2, methylated catechin derivatives, ITC, 298 K, 50 mM sodium phosphate pH 6.8
[5] = Table 2, methylated catechin derivatives, ITC, 298 K, 50 mM sodium phosphate pH 6.8, read-out: KD
[6] = S2 Table, NaCl 0.2 M, read-out: KD
[7] = Table 1, ITC, 298 K, 50 mM sodium phosphate pH 6.8
[8] = Table 1, ITC, 298 K, 50 mM sodium phosphate pH 6.8, HSA 50 μM, single-binding-site model
[9] = Table 1, ITC, 298 K, 50 mM sodium phosphate pH 6.8, read-out: KD

`COc1cc([C@H]2Oc3cc(O)cc(O)c3C[C@H]2OC(=O)c2cc(O)c(O)c(O)c2)cc(O)c1O` [EGCg-3′-O-Me, (−)-Epigallocatechin-3′-O-methylether gallate] was tested, and the ΔG [1, 3] was -7.9 ± 0.1 kcal/mol, the ΔH [1, 3] was -9.3 ± 0.4 kcal/mol and the “−TΔS” value [1, 3] was 1.4 ± 0.3 kcal/mol. The “N (number of binding sites)” value [1, 4] was 0.9 ± 0.1 and the Kd [1, 5] was 1600 ± 200 nM.

`COc1cc(C(=O)O[C@@H]2Cc3c(O)cc(O)cc3O[C@@H]2c2cc(O)c(O)c(O)c2)cc(O)c1O` [EGCg-3′′-O-Me, (−)-epigallocatechin-3′′-O-methylether gallate] showed an N ([1]; S3 Table, temperature 288 K) of 1.1±0.1, a ΔG ([1]; S3 Table, temperature 288 K) of -8.9 ± 0.1 kcal/mol and a ΔH ([1]; S3 Table, temperature 288 K) of -5.7 ± 1.2 kcal/mol. For the same compound, the “−TΔS” value ([1]; S3 Table, temperature 288 K) was -3.2 ± 1.2 kcal/mol, the Kd ([1]; S3 Table, temperature 288 K, read-out: KD) was 190 ± 40 nM and the N ([1]; S3 Table, temperature 293 K) was 1.0±0.1. For the same compound, the ΔG ([1]; S3 Table, temperature 293 K) was -9.3 ± 0.1 kcal/mol, the ΔH ([1]; S3 Table, temperature 293 K) was -6.9 ± 1.7 kcal/mol and the “−TΔS” value ([1]; S3 Table, temperature 293 K) was -2.4 ± 1.7 kcal/mol. For the same compound, the Kd ([1]; S3 Table, temperature 293 K, read-out: KD) was 120 ± 20 nM, the N ([1]; S3 Table, temperature 298 K) was 1.0±0.1 and the ΔG ([1]; S3 Table, temperature 298 K) was -9.4 ± 0.1 kcal/mol. For the same compound, the ΔH ([1]; S3 Table, temperature 298 K) was -7.4 ± 0.9 kcal/mol, the “−TΔS” value ([1]; S3 Table, temperature 298 K) was -1.9 ± 0.9 kcal/mol and the Kd ([1]; S3 Table, temperature 298 K, read-out: KD) was 140 ± 20 nM. For the same compound, the N ([1]; S3 Table, temperature 303 K) was 1.1±0.1, the ΔG ([1]; S3 Table, temperature 303 K) was -9.4 ± 0.2 kcal/mol and the ΔH ([1]; S3 Table, temperature 303 K) was -8.7 ± 0.5 kcal/mol. The “−TΔS” value ([1]; S3 Table, temperature 303 K) was -0.7 ± 0.4 kcal/mol, the Kd ([1]; S3 Table, temperature 303 K, read-out: KD) was 160 ± 40 nM and the ΔG [1, 3] was -9.4 ± 0.1 kcal/mol. For the same compound, the ΔH [1, 3] was -7.9 ± 0.9 kcal/mol, the “N (number of binding sites)” value [1, 4] was 1.0 ± 0.1 and the Kd [1, 5] was 140 ± 20 nM. The Kd ([1]; human, human serum albumin (HSA) 50 µM in buffer, pH 6.8, Table 2, methylated catechin derivatives, ITC, 298 K, 50 mM sodium phosphate pH 6.8, read-out: KD) was 200 nM and the “ΔCp (change in heat capacity)” value ([1]; slope of ΔH versus temperature, 288 to 303 K) was −195 cal mol^−1 K^−1.

`COc1c(O)cc([C@H]2Oc3cc(O)cc(O)c3C[C@H]2OC(=O)c2cc(O)c(O)c(O)c2)cc1O` [EGCg-4′-O-Me, (−)-epigallocatechin-4′-O-methylether gallate] was tested, and the ΔG [1, 3] was -7.9 ± 0.1 kcal/mol, the ΔH [1, 3] was -7.0 ± 0.1 kcal/mol and the “−TΔS” value [1, 3] was -0.8 ± 0.1 kcal/mol. For the same compound, the “N (number of binding sites)” value [1, 4] was 0.9 ± 0.1 and the Kd [1, 5] was 1700 ± 100 nM.

With `COc1c(O)cc(C(=O)O[C@@H]2Cc3c(O)cc(O)cc3O[C@@H]2c2cc(O)c(O)c(O)c2)cc1O` [EGCg-4′′-O-Me, (−)-epigallocatechin-4′′-O-methylether gallate] the ΔG [1, 3] was -8.2 ± 0.1 kcal/mol, the ΔH [1, 3] was -9.8 ± 0.1 kcal/mol and the “−TΔS” value [1, 3] was 1.6 ± 0.1 kcal/mol. For the same compound, the “N (number of binding sites)” value [1, 4] was 1.0 ± 0.1 and the Kd [1, 5] was 1000 ± 100 nM.

`CCOC(=O)c1cc(O)c(O)c(O)c1` [EtGa, Ethyl gallate] was tested, and the “change of binding affinity with addition of 0.2 M NaCl” value ([1]; ITC) was “increased”, the Kd ([1]; S2 Table, NaCl 0 M, read-out: KD) was 45700 nM and the Kd [1, 6] was 16600 nM. The ΔH/ΔG ([1]; Table 1, ITC, 298 K) was 24%, the ΔG [1, 7] was -5.9 ± 0.3 kcal/mol and the ΔH [1, 7] was -1.4 ± 0.1 kcal/mol. The “−TΔS” value [1, 7] was -4.5 ± 0.4 kcal/mol, the “N (number of binding sites)” value [1, 8] was 1.0 ^b and the Kd [1, 9] was 46000 ± 23000 nM.

With `Oc1cc(O)c2c(c1)O[C@@H](c1cc(O)c(O)c(O)c1)[C@H](O)C2` [GC, (−)-gallocatechin] the Kd ([1]; KD, S1 Table, ITC binding affinity listed beside Tm) was 52000 ± 16000 nM, the Kd ([1]; KD, Table 1, ITC, 298 K, 50 mM sodium phosphate pH 6.8) was 52000 ± 16000 nM and the ΔH/ΔG ([1]; Table 1, ITC, 298 K) was 19%. The ΔG [1, 7] was -5.8 ± 0.2 kcal/mol, the ΔH [1, 7] was -1.1 ± 0.5 kcal/mol and the “−TΔS” value [1, 7] was -4.7 ± 0.7 kcal/mol. The “N (number of binding sites)” value [1, 8] was 1.0 ^b, the Tm [2] was 69.3 ± 0.3 °C and the ΔTm at 500 µM [2] was 0.7 °C.

With `O=C(O[C@@H]1Cc2c(O)cc(O)cc2O[C@H]1c1cc(O)c(O)c(O)c1)c1cc(O)c(O)c(O)c1` [GCg, (−)-gallocatechin gallate] the “change of binding affinity with addition of 0.2 M NaCl” value ([1]; ITC) was “decreased”, the “thermodynamic profile of binding (enthalpy-driven or entropy-driven)” value ([1]; ITC, 298 K) was “entropy-driven” and the Kd ([1]; S1 Table, ITC binding affinity listed beside Tm, read-out: KD) was 8800 ± 3400 nM. For the same compound, the Kd [1, 6] was 18600 nM, the ΔH/ΔG ([1]; Table 1, ITC, 298 K) was 43% and the ΔG [1, 7] was -6.9 ± 0.2 kcal/mol. For the same compound, the ΔH [1, 7] was -3.0 ± 0.1 kcal/mol, the “−TΔS” value [1, 7] was -3.9 ± 0.3 kcal/mol and the “N (number of binding sites)” value [1, 8] was 1.2 ± 0.2. For the same compound, the Kd [1, 9] was 8800 ± 3400 nM, the Tm [2] was 73.3 ± 0.2 °C and the ΔTm at 500 µM ([2]; human serum albumin (HSA) 50 µM in buffer) was 4.6 °C.
